In one test the target is T1, Thromboxane A2 receptor (Homo sapiens, UniProt P21731).
T1 sequence (P21731 whole entry): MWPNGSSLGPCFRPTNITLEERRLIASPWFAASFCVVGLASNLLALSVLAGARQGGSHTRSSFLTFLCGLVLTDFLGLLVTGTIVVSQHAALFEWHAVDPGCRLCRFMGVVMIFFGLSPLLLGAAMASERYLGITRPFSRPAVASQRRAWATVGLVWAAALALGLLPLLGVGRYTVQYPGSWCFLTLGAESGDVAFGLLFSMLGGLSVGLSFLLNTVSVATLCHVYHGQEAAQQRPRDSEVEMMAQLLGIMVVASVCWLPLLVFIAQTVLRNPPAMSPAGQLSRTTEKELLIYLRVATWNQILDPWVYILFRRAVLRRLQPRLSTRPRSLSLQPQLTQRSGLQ
Format: functional, cell-based.

Test [1] has as its target T2, Muscarinic acetylcholine receptor M1 (Homo sapiens, UniProt P11229).
T2 sequence (P11229 whole entry): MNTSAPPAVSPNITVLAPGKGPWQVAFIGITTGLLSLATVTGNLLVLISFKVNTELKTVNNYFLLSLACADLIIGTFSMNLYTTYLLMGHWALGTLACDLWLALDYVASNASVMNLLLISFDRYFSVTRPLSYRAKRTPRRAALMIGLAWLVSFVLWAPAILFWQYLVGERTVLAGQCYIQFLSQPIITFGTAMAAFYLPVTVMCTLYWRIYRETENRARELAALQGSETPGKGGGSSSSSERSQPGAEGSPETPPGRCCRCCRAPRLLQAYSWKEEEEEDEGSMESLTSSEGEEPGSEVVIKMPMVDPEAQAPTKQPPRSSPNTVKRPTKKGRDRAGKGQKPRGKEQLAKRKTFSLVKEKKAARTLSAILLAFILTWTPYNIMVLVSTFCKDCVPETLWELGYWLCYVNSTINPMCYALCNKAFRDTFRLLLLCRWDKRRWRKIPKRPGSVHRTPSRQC
The test is classed as functional, cell-based.

Test [2] has as its target T2, Muscarinic acetylcholine receptor M1. The test is classed as functional, cell-based. The source holds these as a separate data set.
A further test concerns the target T3, Androgen receptor (Homo sapiens, UniProt P10275).
T3 sequence (P10275 whole entry): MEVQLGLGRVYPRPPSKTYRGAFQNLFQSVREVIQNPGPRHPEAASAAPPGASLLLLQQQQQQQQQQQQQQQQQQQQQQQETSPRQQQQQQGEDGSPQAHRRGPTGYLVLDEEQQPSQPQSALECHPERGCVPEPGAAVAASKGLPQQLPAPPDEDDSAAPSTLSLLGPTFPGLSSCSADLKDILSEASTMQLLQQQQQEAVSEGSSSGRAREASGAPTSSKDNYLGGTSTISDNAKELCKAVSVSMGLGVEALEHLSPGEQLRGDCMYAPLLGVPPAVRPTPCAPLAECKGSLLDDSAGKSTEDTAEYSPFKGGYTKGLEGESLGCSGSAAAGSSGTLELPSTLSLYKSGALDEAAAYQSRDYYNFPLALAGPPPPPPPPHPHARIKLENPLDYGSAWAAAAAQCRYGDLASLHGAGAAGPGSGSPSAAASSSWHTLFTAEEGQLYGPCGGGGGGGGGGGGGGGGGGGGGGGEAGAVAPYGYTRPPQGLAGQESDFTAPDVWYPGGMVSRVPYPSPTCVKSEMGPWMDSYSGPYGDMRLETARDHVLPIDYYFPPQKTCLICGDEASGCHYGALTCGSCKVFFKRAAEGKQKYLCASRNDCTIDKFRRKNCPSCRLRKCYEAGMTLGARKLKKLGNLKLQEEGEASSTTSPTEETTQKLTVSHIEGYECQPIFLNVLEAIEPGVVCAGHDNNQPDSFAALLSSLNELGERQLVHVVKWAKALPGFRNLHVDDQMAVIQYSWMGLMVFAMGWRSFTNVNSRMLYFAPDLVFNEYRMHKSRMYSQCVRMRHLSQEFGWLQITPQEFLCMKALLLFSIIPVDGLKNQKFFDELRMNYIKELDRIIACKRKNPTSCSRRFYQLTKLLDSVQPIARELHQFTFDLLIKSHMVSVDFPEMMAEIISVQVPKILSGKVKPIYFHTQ

In test [3] the target is Gamma-aminobutyric acid receptor subunit alpha-1/alpha-2/beta-2/gamma-2 (Homo sapiens, UniProt P14867+P18507+P47869+P47870). Format: protein-complex assay.
Sequence of Gamma-aminobutyric acid receptor subunit alpha-1/alpha-2/beta-2/gamma-2 (P14867 whole entry): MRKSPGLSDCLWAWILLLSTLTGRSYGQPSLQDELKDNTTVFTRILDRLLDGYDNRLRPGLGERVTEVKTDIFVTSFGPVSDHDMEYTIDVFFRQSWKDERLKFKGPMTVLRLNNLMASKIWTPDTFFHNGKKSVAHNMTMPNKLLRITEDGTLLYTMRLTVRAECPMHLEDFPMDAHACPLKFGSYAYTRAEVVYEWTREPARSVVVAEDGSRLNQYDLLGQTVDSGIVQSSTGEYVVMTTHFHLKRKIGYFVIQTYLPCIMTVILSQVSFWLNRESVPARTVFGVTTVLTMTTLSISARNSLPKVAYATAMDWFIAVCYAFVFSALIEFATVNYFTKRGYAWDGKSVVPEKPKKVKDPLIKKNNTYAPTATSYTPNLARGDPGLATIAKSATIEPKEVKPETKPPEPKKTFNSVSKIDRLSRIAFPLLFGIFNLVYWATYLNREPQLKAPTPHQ
Sequence of Gamma-aminobutyric acid receptor subunit alpha-1/alpha-2/beta-2/gamma-2 (P47870 whole entry): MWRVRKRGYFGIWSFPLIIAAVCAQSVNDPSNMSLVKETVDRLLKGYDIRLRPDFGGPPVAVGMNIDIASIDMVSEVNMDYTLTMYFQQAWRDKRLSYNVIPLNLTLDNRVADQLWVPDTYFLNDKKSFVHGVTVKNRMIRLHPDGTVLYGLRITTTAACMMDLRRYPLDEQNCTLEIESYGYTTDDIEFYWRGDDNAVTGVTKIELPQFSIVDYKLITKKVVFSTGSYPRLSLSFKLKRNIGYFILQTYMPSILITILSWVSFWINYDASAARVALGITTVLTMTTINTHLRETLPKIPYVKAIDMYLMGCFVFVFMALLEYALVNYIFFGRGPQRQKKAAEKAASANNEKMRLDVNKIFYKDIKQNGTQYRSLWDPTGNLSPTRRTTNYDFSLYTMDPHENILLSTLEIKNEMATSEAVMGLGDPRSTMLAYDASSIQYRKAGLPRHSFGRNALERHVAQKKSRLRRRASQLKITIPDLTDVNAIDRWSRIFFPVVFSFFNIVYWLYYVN
Sequence of Gamma-aminobutyric acid receptor subunit alpha-1/alpha-2/beta-2/gamma-2 (P18507 whole entry): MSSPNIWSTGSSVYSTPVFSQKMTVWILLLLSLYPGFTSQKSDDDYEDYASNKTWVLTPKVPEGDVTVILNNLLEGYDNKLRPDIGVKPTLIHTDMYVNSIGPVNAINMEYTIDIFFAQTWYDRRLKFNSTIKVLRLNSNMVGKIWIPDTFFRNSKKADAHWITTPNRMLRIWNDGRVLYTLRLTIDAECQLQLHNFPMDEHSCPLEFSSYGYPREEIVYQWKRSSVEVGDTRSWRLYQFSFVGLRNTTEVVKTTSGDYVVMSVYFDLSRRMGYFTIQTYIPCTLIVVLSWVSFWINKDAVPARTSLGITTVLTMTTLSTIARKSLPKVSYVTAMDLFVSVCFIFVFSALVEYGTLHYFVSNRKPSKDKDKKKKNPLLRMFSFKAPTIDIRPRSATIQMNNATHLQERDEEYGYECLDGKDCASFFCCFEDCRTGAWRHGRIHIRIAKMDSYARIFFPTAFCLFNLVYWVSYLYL
Sequence of Gamma-aminobutyric acid receptor subunit alpha-1/alpha-2/beta-2/gamma-2 (P47869 whole entry): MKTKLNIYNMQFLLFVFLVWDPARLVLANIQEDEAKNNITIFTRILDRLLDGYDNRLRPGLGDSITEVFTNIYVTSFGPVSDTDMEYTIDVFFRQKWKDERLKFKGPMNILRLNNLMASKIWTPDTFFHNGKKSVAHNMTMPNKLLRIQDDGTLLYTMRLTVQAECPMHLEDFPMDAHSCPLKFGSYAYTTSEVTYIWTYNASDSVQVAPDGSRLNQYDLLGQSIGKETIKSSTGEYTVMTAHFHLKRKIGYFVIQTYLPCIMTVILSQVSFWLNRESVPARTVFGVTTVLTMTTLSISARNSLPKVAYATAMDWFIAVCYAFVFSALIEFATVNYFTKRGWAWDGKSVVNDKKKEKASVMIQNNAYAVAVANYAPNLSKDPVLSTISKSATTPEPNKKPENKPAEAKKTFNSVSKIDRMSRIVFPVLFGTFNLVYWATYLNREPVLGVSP
The target of test [4] is Gamma-aminobutyric acid receptor subunit alpha-1 (Rattus norvegicus, UniProt P62813).
Sequence of Gamma-aminobutyric acid receptor subunit alpha-1 (P62813 whole entry): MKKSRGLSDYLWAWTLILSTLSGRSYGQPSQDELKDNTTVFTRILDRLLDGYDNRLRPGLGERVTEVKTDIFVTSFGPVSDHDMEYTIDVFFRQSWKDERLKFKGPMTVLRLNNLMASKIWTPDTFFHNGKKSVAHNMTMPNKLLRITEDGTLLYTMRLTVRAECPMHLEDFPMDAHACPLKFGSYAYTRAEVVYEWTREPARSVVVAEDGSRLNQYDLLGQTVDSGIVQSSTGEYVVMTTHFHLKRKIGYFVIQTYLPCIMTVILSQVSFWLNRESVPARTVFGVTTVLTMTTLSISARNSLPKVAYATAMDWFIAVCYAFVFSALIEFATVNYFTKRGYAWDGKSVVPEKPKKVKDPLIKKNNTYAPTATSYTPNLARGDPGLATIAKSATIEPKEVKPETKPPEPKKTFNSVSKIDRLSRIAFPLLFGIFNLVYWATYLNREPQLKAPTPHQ
A further test concerns the target T4, Adenosine receptor A1 (Homo sapiens, UniProt P30542).
T4 sequence (P30542 whole entry): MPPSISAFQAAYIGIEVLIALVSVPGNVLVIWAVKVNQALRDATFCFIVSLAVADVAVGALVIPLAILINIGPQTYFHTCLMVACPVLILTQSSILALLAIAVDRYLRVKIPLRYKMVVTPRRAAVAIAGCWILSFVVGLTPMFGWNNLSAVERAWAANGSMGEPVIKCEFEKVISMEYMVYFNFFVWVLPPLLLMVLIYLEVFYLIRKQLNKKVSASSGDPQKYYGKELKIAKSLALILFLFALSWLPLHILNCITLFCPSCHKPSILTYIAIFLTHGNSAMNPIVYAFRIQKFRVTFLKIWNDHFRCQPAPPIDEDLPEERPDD

The next test has as its target Melanocortin receptor 3 (Homo sapiens, UniProt P41968).
Test [5] has as its target 5-hydroxytryptamine receptor 2B (Homo sapiens, UniProt P41595). Format: functional, cell-based.
Test [6] has as its target Voltage-dependent L-type calcium channel subunit alpha-1C (Rattus norvegicus, UniProt P22002). Format: functional.
The target in test [7] is Glutamate receptor ionotropic, NMDA 1 (Rattus norvegicus, UniProt P35439).
For test [8], the target named is Kappa-type opioid receptor (Homo sapiens, UniProt P41145).
Sequence of Kappa-type opioid receptor (P41145 whole entry): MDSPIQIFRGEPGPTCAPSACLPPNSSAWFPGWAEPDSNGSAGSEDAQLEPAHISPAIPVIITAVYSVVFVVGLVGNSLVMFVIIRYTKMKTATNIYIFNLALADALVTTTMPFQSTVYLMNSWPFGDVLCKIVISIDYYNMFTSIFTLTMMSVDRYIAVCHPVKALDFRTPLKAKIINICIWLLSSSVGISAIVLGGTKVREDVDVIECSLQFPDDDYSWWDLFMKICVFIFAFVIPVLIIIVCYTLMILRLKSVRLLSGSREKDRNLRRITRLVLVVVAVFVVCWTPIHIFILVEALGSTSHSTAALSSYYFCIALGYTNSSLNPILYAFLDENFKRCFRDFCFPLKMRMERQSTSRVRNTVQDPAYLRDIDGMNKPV
Test [9] has as its target Growth hormone secretagogue receptor type 1 (Homo sapiens, UniProt Q92847).
Test [10] has as its target T2, Muscarinic acetylcholine receptor M1. The test is classed as functional.
For test [11], the target named is 5-hydroxytryptamine receptor 2A (Homo sapiens, UniProt P28223). Format: functional, cell-based.
Sequence of 5-hydroxytryptamine receptor 2A (P28223 whole entry): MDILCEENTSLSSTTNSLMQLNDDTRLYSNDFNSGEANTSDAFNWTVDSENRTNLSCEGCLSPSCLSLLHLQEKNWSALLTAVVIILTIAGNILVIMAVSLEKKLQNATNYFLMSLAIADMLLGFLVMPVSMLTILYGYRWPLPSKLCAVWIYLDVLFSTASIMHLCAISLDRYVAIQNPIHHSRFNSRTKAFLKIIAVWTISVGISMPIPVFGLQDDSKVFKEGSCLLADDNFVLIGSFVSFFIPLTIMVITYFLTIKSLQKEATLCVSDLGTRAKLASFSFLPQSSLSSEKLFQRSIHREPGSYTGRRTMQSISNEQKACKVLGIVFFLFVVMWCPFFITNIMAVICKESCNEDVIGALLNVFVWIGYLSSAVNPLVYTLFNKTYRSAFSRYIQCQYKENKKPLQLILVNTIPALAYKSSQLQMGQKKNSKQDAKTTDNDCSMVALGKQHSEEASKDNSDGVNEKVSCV

Each structure is given as a SMILES string.
Note: assay procedure not described here.

Sequence of Melanocortin receptor 3 (P41968 whole entry): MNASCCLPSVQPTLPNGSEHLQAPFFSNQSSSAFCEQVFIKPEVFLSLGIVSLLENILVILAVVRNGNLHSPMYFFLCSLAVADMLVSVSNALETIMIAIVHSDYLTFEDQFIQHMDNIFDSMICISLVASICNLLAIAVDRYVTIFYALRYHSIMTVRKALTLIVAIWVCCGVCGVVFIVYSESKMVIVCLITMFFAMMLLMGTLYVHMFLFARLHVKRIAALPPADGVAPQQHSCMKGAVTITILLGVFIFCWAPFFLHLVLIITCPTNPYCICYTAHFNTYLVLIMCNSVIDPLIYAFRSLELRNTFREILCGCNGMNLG
Sequence of Growth hormone secretagogue receptor type 1 (Q92847 whole entry): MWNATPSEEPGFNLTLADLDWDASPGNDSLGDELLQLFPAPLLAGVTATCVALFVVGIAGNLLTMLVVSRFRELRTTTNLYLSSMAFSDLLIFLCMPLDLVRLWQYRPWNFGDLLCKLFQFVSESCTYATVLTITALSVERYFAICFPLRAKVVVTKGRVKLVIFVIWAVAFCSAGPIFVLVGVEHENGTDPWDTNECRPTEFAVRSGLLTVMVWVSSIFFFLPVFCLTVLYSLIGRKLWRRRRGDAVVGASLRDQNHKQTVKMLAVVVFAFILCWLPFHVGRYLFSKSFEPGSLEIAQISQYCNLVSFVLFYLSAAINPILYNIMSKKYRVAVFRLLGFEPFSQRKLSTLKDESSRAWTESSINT
Sequence of 5-hydroxytryptamine receptor 2B (P41595 whole entry): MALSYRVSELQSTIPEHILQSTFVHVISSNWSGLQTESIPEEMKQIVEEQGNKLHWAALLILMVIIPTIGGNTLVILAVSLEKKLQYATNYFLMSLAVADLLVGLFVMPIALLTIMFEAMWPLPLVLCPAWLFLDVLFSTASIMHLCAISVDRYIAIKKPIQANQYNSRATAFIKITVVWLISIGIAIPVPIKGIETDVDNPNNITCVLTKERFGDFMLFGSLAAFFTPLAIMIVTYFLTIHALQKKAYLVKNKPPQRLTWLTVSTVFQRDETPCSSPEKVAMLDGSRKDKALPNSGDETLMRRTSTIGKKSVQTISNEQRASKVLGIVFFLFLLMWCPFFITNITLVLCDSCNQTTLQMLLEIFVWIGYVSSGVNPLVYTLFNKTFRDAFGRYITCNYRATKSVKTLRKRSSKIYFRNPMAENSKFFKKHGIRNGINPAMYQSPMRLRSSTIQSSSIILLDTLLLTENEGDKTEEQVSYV

The AC50 is the midpoint of the concentration-response curve, whichever way the signal moves. For the molecule `CC(C)(Oc1ccc(C(=O)c2ccc(Cl)cc2)cc1)C(=O)O` [FENOFIBRIC ACID], the AC50 (on Thromboxane A2 receptor; in test [1]; in [2]; at Androgen receptor; in test [3]) was greater than 30 µM in each case.

In the case of `CC1=C(/C=C/C(C)=C\C=C\C(C)=C\C(=O)O)C(C)(C)CCC1` [ALITRETINOIN], the AC50 (on Thromboxane A2 receptor; in [4]; at Adenosine receptor A1) was greater than 30 µM each time.

`COC(=O)N[C@H](C(=O)N1CC2(CC2)C[C@H]1c1ncc(-c2ccc3c(c2)C(F)(F)c2cc(-c4ccc5nc([C@@H]6[C@H]7CC[C@H](C7)N6C(=O)[C@@H](NC(=O)OC)C(C)C)[nH]c5c4)ccc2-3)[nH]1)C(C)C`: the AC50 at Thromboxane A2 receptor was greater than 30 µM; in [1], greater than 30 µM; in test [2], greater than 30 µM; at Androgen receptor it was greater than 10 µM; in test [3], greater than 30 µM.

On to `CC1(C)C[C@@H]1C(=O)N/C(=C\CCCCSC[C@H](N)C(=O)O)C(=O)O` [CILASTATIN], for which the half-maximal activity concentration (AC50) (at Thromboxane A2 receptor; in test [1]; in [2]; at Androgen receptor; in test [4]; at Adenosine receptor A1) was greater than 30 µM throughout.

Regarding `CC(=O)Nc1ccc(/C=N/NC(N)=S)cc1` [AMITHIOZONE], the AC50 (at Thromboxane A2 receptor; in test [4]; on Adenosine receptor A1) was greater than 30 µM each time.

Take `OCc1ccccc1` [BENZYL ALCOHOL]: the AC50 (on Thromboxane A2 receptor; on Androgen receptor; in test [3]) was greater than 30 µM in each case.

In the case of `OC(CN1CCCCC1)c1cc(-c2ccccc2)on1` (stereo not drawn) [PERISOXAL], the AC50 (at Thromboxane A2 receptor; on Androgen receptor; in test [4]; on Adenosine receptor A1) was greater than 30 µM each time.

`CO[C@H]1/C=C/O[C@@]2(C)Oc3c(C)c(O)c4c(c3C2=O)C2=NC3(CCN(CC(C)C)CC3)NC2=C(NC(=O)/C(C)=C\C=C\[C@H](C)[C@H](O)[C@@H](C)[C@@H](O)[C@@H](C)[C@H](OC(C)=O)[C@@H]1C)C4=O` [RIFABUTIN]: the AC50 (on Thromboxane A2 receptor; on Androgen receptor; in [3]) was greater than 30 µM each time.

For `O=C1Nc2ccccc2C1(c1ccc(O)cc1)c1ccc(O)cc1` [OXYPHENISATINE], the half-maximal activity concentration (AC50) (on Thromboxane A2 receptor; in test [1]; in [2]; in test [4]; on Adenosine receptor A1) was greater than 30 µM each time.

`COC(=O)N(C)c1c(N)nc(-c2nn(Cc3ccccc3F)c3ncccc23)nc1N` [RIOCIGUAT]: the AC50 (at Thromboxane A2 receptor; in test [1]; in test [2]; on Androgen receptor; in test [3]) was greater than 30 µM each time.

`CC(=O)OC1CN2CCC1CC2` (stereo not drawn) [ACECLIDINE]: the AC50 (on Thromboxane A2 receptor; in test [4]; on Adenosine receptor A1) was greater than 30 µM each time.

Consider `O=C(OOC(=O)c1ccccc1)c1ccccc1` [BENZOYL PEROXIDE], for which the concentration at half-maximal activity (AC50) (at Thromboxane A2 receptor; in test [1]; in test [2]; in test [4]; at Adenosine receptor A1) was greater than 30 µM throughout.

As to `CN1C(C(=O)Nc2ccccn2)=C(OC(=O)/C=C/c2ccccc2)c2ccccc2S1(=O)=O` [PIROXICAM CINNAMATE], the AC50 (on Thromboxane A2 receptor; in test [1]; in test [2]; on Androgen receptor; in test [3]) was greater than 30 µM throughout.

Take `Cc1ccc2c([nH]c(=O)c3c(=O)cc(C(=O)OCCC(C)C)oc32)c1C`: the AC50 at Thromboxane A2 receptor is greater than 30 µM; in [1], greater than 30 µM; in test [2] it was greater than 30 µM; on Androgen receptor, greater than 30 µM; in test [3], greater than 10 µM.

As for `C[C@@H](O)[C@H]1C(=O)N2C(C(=O)O)=C(S[C@@H]3CN[C@H](C(=O)Nc4cccc(C(=O)O)c4)C3)[C@H](C)[C@H]12`, the AC50 (on Thromboxane A2 receptor; on Androgen receptor; in [4]; on Adenosine receptor A1) was greater than 30 µM throughout.

For the molecule `CSCC[C@H](N)C(=O)O` [METHIONINE], the AC50 (on Thromboxane A2 receptor; in [4]; on Adenosine receptor A1) was greater than 30 µM each time.

As for `CC(NCCC(c1ccccc1)c1ccccc1)c1ccccc1` (stereo not drawn) [FENDILINE], the AC50 in test [1] is 26.7 µM; at Androgen receptor it was greater than 30 µM; in [3], greater than 10 µM.

As for `CC(C)N1CCOC(c2cccc(C(F)(F)F)c2)C1` (stereo not drawn) [OXAFLOZANE], the AC50 (on Thromboxane A2 receptor; in [1]; in test [2]; at Androgen receptor; in test [3]) was greater than 30 µM each time.

Regarding `N=C(N)NC(=O)c1nc(Cl)c(N)nc1N` [AMILORIDE], the AC50 (on Thromboxane A2 receptor; at Melanocortin receptor 3; in test [5]; in [6]; in [4]; in test [7]) was greater than 30 µM each time. In addition, the AC50 (in test [8]; in test [9]; at Adenosine receptor A1) was greater than 30 µM throughout.

Regarding `Cc1cn(-c2cc(NC(=O)c3ccc(C)c(Nc4nccc(-c5cnccn5)n4)c3)cc(C(F)(F)F)c2)cn1` [RADOTINIB], the AC50 (in [10]; on Thromboxane A2 receptor; in test [1]; on Melanocortin receptor 3; in [2]; in test [11]) was greater than 30 µM each time. Further, the AC50 (at Androgen receptor; in test [3]) was greater than 30 µM throughout.

Consider `CC1=C(/C=C/C(C)=C/C=C/C(C)=C\C(=O)O)C(C)(C)CCC1` [ISOTRETINOIN], for which the AC50 (at Thromboxane A2 receptor; in test [4]; on Adenosine receptor A1) was greater than 30 µM in each case.

With `COC(=O)Nc1nc2cc(C(=O)c3ccc(F)cc3)ccc2[nH]1` [FLUBENDAZOLE], the half-maximal activity concentration (AC50) (at Thromboxane A2 receptor; at Androgen receptor; in [3]) was greater than 30 µM in each case.

The values are drawn from ChEMBL document CHEMBL5291721, “A preclinical secondary pharmacology resource illuminates target-adverse drug reaction associations of marketed drugs” (Nat Commun, 2023).
